The data set deals with CCRIS mutagenicity, Ames/micronucleus/aberration tests. Put plainly: CCRIS mutagenicity studies. The note with it: Test System: AMES SALMONELLA TYPHIMURIUM
Where [1] appears, read: Strain/Indicator: TA97, Metabolic Activation: NONE, Method: STANDARD PLATE.
Setting [2] is: Strain/Indicator: TA97, Metabolic Activation: RAT, LIVER, S-9, AROCLOR 1254, Method: STANDARD PLATE.
Where [3] appears, read: Strain/Indicator: TA98, Metabolic Activation: NONE, Method: STANDARD PLATE.
Where [4] appears, read: Strain/Indicator: TA98, Metabolic Activation: RAT, LIVER, S-9, AROCLOR 1254, Method: STANDARD PLATE.
Setting [5] is: Strain/Indicator: TA100, Metabolic Activation: NONE, Method: STANDARD PLATE.
[6] abbreviates: Strain/Indicator: TA100, Metabolic Activation: RAT, LIVER, S-9, AROCLOR 1254, Method: STANDARD PLATE.
Setting [7] is: Strain/Indicator: TA102, Metabolic Activation: NONE, Method: STANDARD PLATE.
[8] abbreviates: Strain/Indicator: TA102, Metabolic Activation: RAT, LIVER, S-9, AROCLOR 1254, Method: STANDARD PLATE.

The source made the active and inactive calls. No rule for the calls is given here.

The source of these data is PubChem BioAssay AID1259407 (Chemical Carcinogenesis Research Information System (CCRIS), 2018).

On to `CC(Oc1ccc(Cl)cc1Cl)C(=O)O` (stereo not drawn), for which the mutagenic call was “inactive; negative” under setting [1]; “inactive; negative” under setting [2]; “inactive; negative” under setting [3]; “inactive; negative” under setting [4]; “inactive; negative” under setting [5]; “inactive; negative” under setting [6]. Further, the mutagenic call under setting [7] was “inactive; negative” and the mutagenic call under setting [8] was “inactive; negative”.

Turning to `c1ccc2cc3c(ccc4cccnc43)cc2c1`, the mutagenic call is “inactive; negative” under setting [3], “active; positive” under setting [4], “inactive; negative” under setting [5] and “inactive; negative” under setting [6].

For `CN1CCCC1=O`, the mutagenic call runs as follows: under setting [1], “inactive; negative”; under setting [2], “inactive; negative”; (Strain/Indicator: TA98, Metabolic Activation: NONE, Method: PREINCUBATION) “inactive; negative”; under setting [3], “inactive; negative”; (Strain/Indicator: TA98, Metabolic Activation: RAT, LIVER, S-9, AROCLOR 1254, Method: PREINCUBATION) “inactive; negative”; under setting [4], “inactive; negative”. Moreover, the mutagenic call under setting [5] is “inactive; negative”; the mutagenic call under setting [6] was “inactive; negative”; the mutagenic call under setting [7] was “inactive; negative”; the mutagenic call under setting [8] was “inactive; negative”; the mutagenic call (Strain/Indicator: TA104, Metabolic Activation: NONE, Method: PREINCUBATION) is “inactive; negative”; the mutagenic call (Strain/Indicator: TA104, Metabolic Activation: NONE, Method: STANDARD PLATE) was “inactive; negative”. The mutagenic call (Strain/Indicator: TA104, Metabolic Activation: RAT, LIVER, S-9, AROCLOR 1254, Method: PREINCUBATION) is “inactive; negative”; the mutagenic call (Strain/Indicator: TA104, Metabolic Activation: RAT, LIVER, S-9, AROCLOR 1254, Method: STANDARD PLATE) is “inactive; negative”; the mutagenic call (Strain/Indicator: TA2638, Metabolic Activation: NONE, Method: STANDARD PLATE) is “inactive; negative”; the mutagenic call (Strain/Indicator: TA2638, Metabolic Activation: RAT, LIVER, S-9, AROCLOR 1254, Method: STANDARD PLATE) was “inactive; negative”; the mutagenic call (Strain/Indicator: UTH8413, Metabolic Activation: NONE, Method: STANDARD PLATE) is “inactive; negative”; the mutagenic call (Strain/Indicator: UTH8413, Metabolic Activation: RAT, LIVER, S-9, AROCLOR 1254, Method: STANDARD PLATE) was “inactive; negative”. For the same compound, the mutagenic call is, setting by setting: (Strain/Indicator: UTH8414, Metabolic Activation: NONE, Method: STANDARD PLATE) “inactive; negative”; (Strain/Indicator: UTH8414, Metabolic Activation: RAT, LIVER, S-9, AROCLOR 1254, Method: STANDARD PLATE) “inactive; negative”.

For `O=C1OCC(Br)=C1Br`, the mutagenic call under setting [5] is “active; positive”.
